These results are taken from patent publication US20100222349A1, “QUINOLINE DERIVATIVES USED TO TREAT INFLAMMATORY AND ALLERGIC DISEASES” (Glaxo Group Limited, priority 2007, published 2010).

One experiment deals with T1, human H1 receptor (Homo sapiens, UniProt P35367).
T1 construct: expressed in transfected cells
Briefly: Histamine H1 functional antagonist assay: determination of functional pKi values (FLIPR). The note with it: CHO cells expressing human H1 receptor, histamine at EC80, read-out: average pKi (pKb) at H1 (converted). It is filed as cell-based. The method in brief: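 Functional affinities come from concentration-effect curves of inhibited histamine (EC80) calcium responses read by FLIPR. Compound sat 30 min at 37° C on Fluo-4-loaded CHO cells stably expressing human H1 receptor, in probenecid-containing Tyrodes buffer, pH 7.40.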

The next experiment deals with T2, histamine H3 receptor (Homo sapiens, UniProt Q9Y5N1).
T2 construct: expressed in transfected cells; host or cells: CHO K1 cells with pSwitch/pGeneH3 (GeneSwitch, mifepristone-induced), clone 3H3; membrane preparation
T2 sequence (Q9Y5N1 whole entry, species assumed): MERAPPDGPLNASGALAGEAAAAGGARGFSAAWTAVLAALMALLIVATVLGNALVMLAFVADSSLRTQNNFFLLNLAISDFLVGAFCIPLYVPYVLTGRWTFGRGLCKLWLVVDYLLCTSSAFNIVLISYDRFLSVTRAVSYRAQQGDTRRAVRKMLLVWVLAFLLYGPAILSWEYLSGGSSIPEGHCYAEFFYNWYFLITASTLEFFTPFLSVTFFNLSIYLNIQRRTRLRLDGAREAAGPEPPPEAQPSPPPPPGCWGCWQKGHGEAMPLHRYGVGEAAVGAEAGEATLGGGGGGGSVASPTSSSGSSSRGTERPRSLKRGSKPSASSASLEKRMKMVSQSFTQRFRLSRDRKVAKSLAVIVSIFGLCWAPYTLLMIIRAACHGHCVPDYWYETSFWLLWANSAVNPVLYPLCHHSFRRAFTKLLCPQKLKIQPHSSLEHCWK
In words: Histamine H3 functional antagonist assay (GTPγS, membranes). It is filed as biochemical. The note with it: CHO K1 membranes, [35S]-GTPγS, histamine at EC80; read-out: average pKi (pKb) at H3 (converted). In a few lines: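 Membranes came from CHO K1 cells with mifepristone-inducible (10 nM, 18 h) human H3 receptor expression, clone 3H3. Test compounds in DMSO were combined with WGA polystyrene LeadSeeker SPA beads, membranes and GDP.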
(In general: Binding of GTPγS marks nucleotide exchange on a G protein.)

A value given as a limit tells only on which side of the number the result lay.

T1 sequence (P35367 whole entry): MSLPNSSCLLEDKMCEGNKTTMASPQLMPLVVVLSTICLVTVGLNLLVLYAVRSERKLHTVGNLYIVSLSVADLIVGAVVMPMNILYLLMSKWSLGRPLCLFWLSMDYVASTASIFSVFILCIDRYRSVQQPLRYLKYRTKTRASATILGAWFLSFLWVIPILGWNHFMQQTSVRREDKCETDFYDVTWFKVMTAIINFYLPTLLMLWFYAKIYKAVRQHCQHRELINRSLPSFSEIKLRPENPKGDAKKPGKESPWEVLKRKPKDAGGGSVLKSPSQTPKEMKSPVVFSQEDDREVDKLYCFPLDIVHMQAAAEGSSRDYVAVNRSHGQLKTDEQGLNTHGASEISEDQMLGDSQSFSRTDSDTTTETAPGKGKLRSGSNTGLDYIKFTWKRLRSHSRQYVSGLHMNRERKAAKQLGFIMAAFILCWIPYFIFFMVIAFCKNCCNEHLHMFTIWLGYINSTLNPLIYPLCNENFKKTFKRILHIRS

Take `CCCCc1cc(OC2CCN(CC(=O)NCCOC)CC2)c2ncccc2c1` [Example 11, 2-{4-[(6-butyl-8-quinolinyl)oxy]-1-piperidinyl}-N-[2-(methyloxy)ethyl] acetamide]: the Ki at human H1 receptor was below 100 nM; on histamine H3 receptor, above 3160 nM.
For `CCCCc1cc(OC2CCN(CCNC(=O)C3CCCCC3)CC2)c2ncccc2c1` [Example 75, N-(2-{4-[(6-butyl-8-quinolinyl)oxy]-1-piperidinyl}ethyl) cyclohexane carboxamide] the same measures were below 10 nM and above 316 nM.
Taken in the same sequence, the figures for `CCCCc1cc(OC2CCN(CC(=O)N3CCCCC3)CC2)c2ncccc2c1` [Example 13, 6-butyl-8-({1-[2-oxo-2-(1-piperidinyl)ethyl]-4-piperidinyl}oxy) quinoline] were below 100 nM and above 3160 nM.
Taken in the same sequence, the figures for `CCCCc1cc(OC2CCN(CCC3CCN(C(C)=O)CC3)CC2)c2ncccc2c1` [Example 3, 8-({1-[2-(1-Acetyl-4-piperidinyl)ethyl]-4-piperidinyl}oxy)-6-butylquinoline] were below 100 nM and above 316 nM.
For the compound `CCCCc1cc(OC2CCN(CCCC(=O)NCCOC)CC2)c2ncccc2c1` [Example 23, 4-{4-[(6-butyl-8-quinolinyl)oxy]-1-piperidinyl}-N-[2-(methyloxy)ethyl] butanamide], the Ki at human H1 receptor is below 10 nM; at histamine H3 receptor it was above 3160 nM.
For `CCCCc1cc(OC2CCN(CCCCNC(=O)CCOC)CC2)c2ncccc2c1` [Example 85, N-(4-{4-[(6-butyl-8-quinolinyl)oxy]-1-piperidinyl}butyl)-3-(methyloxy) propanamide] the same measures were below 10 nM and above 316 nM.
For `CCCCc1cc(OC2CCN(CC(=O)NCCCOC)CC2)c2ncccc2c1` [Example 8, 2-{4-[(6-butyl-8-quinolinyl)oxy]-1-piperidinyl}-N-[3-(methyloxy)propyl] acetamide] the same measures were below 100 nM and above 3160 nM.
For `CCCCc1cc(O[C@@H]2CCN(CCC(=O)N3CCCCC3)C2)c2ncccc2c1` [Example 33, 6-butyl-8-({(3R)-1-[3-oxo-3-(1-piperidinyl)propyl]-3-pyrrolidinyl}oxy)quinoline] the same measures were below 10 nM and above 316 nM.
For the compound `CCCCc1cc(OC2CCN(CCCCC(=O)NCCC)CC2)c2ncccc2c1` [Example 28, 5-{4-[(6-butyl-8-quinolinyl)oxy]-1-piperidinyl}-N-propylpentanamide], the Ki is below 10 nM on human H1 receptor and above 3160 nM at histamine H3 receptor.
Taken in the same sequence, the figures for `CCCCCCc1cc(OC2CCN(C[C@H]3CC[C@H](C(=O)NCCCOC)CC3)CC2)c2ncccc2c1` [Example 58, trans-4-({4-[(6-hexyl-8-quinolinyl)oxy]-1-piperidinyl}methyl)-N-[3-(methyloxy)propyl]cyclohexane carboxamide] were below 100 nM and above 316 nM.
`CCCCc1cc(OC2CCN(CCCCC(=O)NCCCOC)CC2)c2ncccc2c1` [Example 26, 5-{4-[(6-butyl-8-quinolinyl)oxy]-1-piperidinyl}-N-[3-(methyloxy)propyl]pent-anamide]: the values for the Ki at human H1 receptor and at histamine H3 receptor were below 100 nM and above 3160 nM, respectively.
Taken in the same sequence, the figures for `CCCCc1cc(OC2CCN(CCCCCNC(=O)CC)CC2)c2ncccc2c1` [Example 77, N-(5-{4-[(6-butyl-8-quinolinyl)oxy]-1-piperidinyl}pentyl) propanamide] were below 10 nM and above 316 nM.
For `CCCCc1cc(OC2CCN(CCCCNC(=O)CCCOC)CC2)c2ncccc2c1` [Example 84, N-(4-{4-[(6-butyl-8-quinolinyl)oxy]-1-piperidinyl}butyl)-4-(methyloxy) butanamide] the same measures were below 10 nM and above 316 nM.
Taken in the same sequence, the figures for `CCCCc1cc(O[C@@H]2CCN(CCC(=O)NC(C)(C)C)C2)c2ncccc2c1` [Example 36, 3-{(3R)-3-[(6-butyl-8-quinolinyl)oxy]-1-pyrrolidinyl}-N-(1,1-dimethylethyl) propanamide] were below 10 nM and above 316 nM.
For `CCCCc1cc(OC2CCN(CCNC(=O)C(C)C)CC2)c2ncccc2c1` [Example 71, N-(2-{4-[(6-butyl-8-quinolinyl)oxy]-1-piperidinyl}ethyl)-2-methylpropanamide], the Ki is below 10 nM at human H1 receptor and above 316 nM on histamine H3 receptor.
Taken in the same sequence, the figures for `CCCCc1cc(OC2CCN(CCCC(=O)NC(C)C)CC2)c2ncccc2c1` [Example 25, 4-{4-[(6-butyl-8-quinolinyl)oxy]-1-piperidinyl}-N-(1-methylethyl)butanamide] were below 10 nM and above 3160 nM.
Taken in the same sequence, the figures for `CCCCc1cc(OC2CCN(CCCCCNC(=O)C(C)(C)C)CC2)c2ncccc2c1` [Example 76, N-(5-{4-[(6-butyl-8-quinolinyl)oxy]-1-piperidinyl}pentyl)-2,2-dimethyl propanamide] were below 10 nM and above 316 nM.
Taken in the same sequence, the figures for `CCCCc1cc(OC2CCN(CCC(=O)NCCCOC)CC2)c2ncccc2c1` [Example 16, 3-{4-[(6-butyl-8-quinolinyl)oxy]-1-piperidinyl}-N-[3-(methyloxy)propyl] propanamide] were below 10 nM and above 3160 nM.
For `CCCCc1cc(OC2CCN(CCCCNC(=O)CC)CC2)c2ncccc2c1` [Example 64, N-(4-{4-[(6-Butyl-8-quinolinyl)oxy]-1-piperidinyl}butyl)propanamide], the values for the Ki on human H1 receptor and on histamine H3 receptor were below 10 nM and above 316 nM, respectively.
For `CCCCCc1cc(OC2CCN(CCCC(=O)NC(C)(C)C)CC2)c2ncccc2c1` [Example 88, N-(1,1-dimethylethyl)-4-{4-[(6-pentyl-8-quinolinyl)oxy]-1-piperidinyl}butanamide], the Ki was below 10 nM on human H1 receptor and above 316 nM at histamine H3 receptor.
For `CCCCc1cc(OC2CCN(CCCC(=O)NCC)CC2)c2ncccc2c1` [Example 20, 4-{4-[(6-butyl-8-quinolinyl)oxy]-1-piperidinyl}-N-ethylbutanamide] the same measures were below 10 nM and above 3160 nM.
For `CCCCc1cc(OC2CCN(C[C@H]3CC[C@H](C(=O)NC(C)C)CC3)CC2)c2ncccc2c1` [Example 42, Trans-4-({4-[(6-butyl-8-quinolinyl)oxy]-1-piperidinyl}methyl)-N-(1-methylethyl)cyclohexanecarboxamide] the same measures were below 100 nM and above 316 nM.
For `CCCCc1cc(OC2CCN(C[C@H]3CC[C@H](C(=O)NCCCOC)CC3)CC2)c2ncccc2c1` [Example 47, trans-4-({4-[(6-butyl-8-quinolinyl)oxy]-1-piperidinyl}methyl)-N-[3-(methyloxy)propyl]cyclohexane carboxamide] the same measures were below 10 nM and above 316 nM.
As for `CCCCc1cc(OC2CCN(C[C@H]3CC[C@H](C(=O)N4CCCC4)CC3)CC2)c2ncccc2c1` [Example 62, 6-butyl-8-[(1-{[trans-4-(1-pyrrolidinylcarbonyl)cyclohexyl]methyl}-4-piperidinyl)oxy]quinoline], the results for the Ki on human H1 receptor and at histamine H3 receptor were below 10 nM and above 316 nM, respectively.
For `CCCCCCc1cc(OC2CCN(C[C@H]3CC[C@H](C(=O)NCC(C)(C)C)CC3)CC2)c2ncccc2c1` [Example 52, trans-N-(2,2-dimethylpropyl)-4-({4-[(6-hexyl-8-quinolinyl)oxy]-1-piperidinyl}methyl)cyclohexane carboxamide] the same measures were below 100 nM and above 316 nM.
